Test results: ChEMBL document CHEMBL1201862, “PubChem BioAssay data set” (2004)
Activity calls are given as the source filed them.

Assays:
CHO = assay: cytotoxicity in TLR9-MyD88 CHO cells, dose response, cytotoxicity control for TLR9-MyD88 binding inhibitor project, cell-based, luminescence (AID 588339); assay type: functional, hamster; conditions: Cricetulus griseus;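 further: CHO cells stably coexpressing TLR9 and MyD88 fusions from primary screen; compound exposure lasted 48 hours before viability readout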
Beta Lactamase = Beta Lactamase (Pseudomonas aeruginosa, UniProt Q932Y6); assay: beta-lactamase reporter inhibitor potency, dose response, artefact control for TLR9-MyD88 binding inhibitor project, BLA reporter cells, FRET fluorescence (AID 588341); assay type: cell-based;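 further: cell based assay in CHO-K1 cells stably expressing beta-lactamase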
[1] = target: T1, Sentrin-specific protease 8 (Homo sapiens, UniProt Q96LD8); assay type: functional
T1 sequence (Q96LD8 whole entry): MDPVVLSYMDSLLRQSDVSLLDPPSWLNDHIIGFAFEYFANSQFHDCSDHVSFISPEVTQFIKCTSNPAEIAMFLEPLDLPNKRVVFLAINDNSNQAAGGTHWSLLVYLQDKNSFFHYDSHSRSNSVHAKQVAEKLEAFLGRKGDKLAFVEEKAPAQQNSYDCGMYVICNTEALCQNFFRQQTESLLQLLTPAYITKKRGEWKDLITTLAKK

[2] = target: T1, Sentrin-specific protease 8; assay type: functional; remark: listed apart in the source
CAAX prenyl protease 2 = target: T2, CAAX prenyl protease 2 (Saccharomyces cerevisiae S288c, UniProt Q03530); assay: yeast Rce1 CaaX protease inhibitors, dose response, biochemical, plate reader, dry powder retest (AID 588851)
T2 sequence (Q03530 whole entry): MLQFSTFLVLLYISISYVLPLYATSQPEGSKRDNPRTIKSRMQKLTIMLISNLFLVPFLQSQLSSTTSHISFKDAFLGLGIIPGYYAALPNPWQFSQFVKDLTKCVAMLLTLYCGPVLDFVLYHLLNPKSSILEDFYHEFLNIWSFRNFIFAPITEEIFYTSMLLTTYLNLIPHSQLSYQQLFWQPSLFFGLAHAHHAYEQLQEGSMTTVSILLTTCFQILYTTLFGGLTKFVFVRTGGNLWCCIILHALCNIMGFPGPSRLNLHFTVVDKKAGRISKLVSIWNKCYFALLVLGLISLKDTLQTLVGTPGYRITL

[3] = target: T3, Sentrin-specific protease 7 (Homo sapiens, UniProt Q9BQF6); assay: SENP7 protease inhibitors, SAR follow-up, biochemical, luminescence, set 2 (AID 588600); assay type: functional
T3 sequence (Q9BQF6 whole entry): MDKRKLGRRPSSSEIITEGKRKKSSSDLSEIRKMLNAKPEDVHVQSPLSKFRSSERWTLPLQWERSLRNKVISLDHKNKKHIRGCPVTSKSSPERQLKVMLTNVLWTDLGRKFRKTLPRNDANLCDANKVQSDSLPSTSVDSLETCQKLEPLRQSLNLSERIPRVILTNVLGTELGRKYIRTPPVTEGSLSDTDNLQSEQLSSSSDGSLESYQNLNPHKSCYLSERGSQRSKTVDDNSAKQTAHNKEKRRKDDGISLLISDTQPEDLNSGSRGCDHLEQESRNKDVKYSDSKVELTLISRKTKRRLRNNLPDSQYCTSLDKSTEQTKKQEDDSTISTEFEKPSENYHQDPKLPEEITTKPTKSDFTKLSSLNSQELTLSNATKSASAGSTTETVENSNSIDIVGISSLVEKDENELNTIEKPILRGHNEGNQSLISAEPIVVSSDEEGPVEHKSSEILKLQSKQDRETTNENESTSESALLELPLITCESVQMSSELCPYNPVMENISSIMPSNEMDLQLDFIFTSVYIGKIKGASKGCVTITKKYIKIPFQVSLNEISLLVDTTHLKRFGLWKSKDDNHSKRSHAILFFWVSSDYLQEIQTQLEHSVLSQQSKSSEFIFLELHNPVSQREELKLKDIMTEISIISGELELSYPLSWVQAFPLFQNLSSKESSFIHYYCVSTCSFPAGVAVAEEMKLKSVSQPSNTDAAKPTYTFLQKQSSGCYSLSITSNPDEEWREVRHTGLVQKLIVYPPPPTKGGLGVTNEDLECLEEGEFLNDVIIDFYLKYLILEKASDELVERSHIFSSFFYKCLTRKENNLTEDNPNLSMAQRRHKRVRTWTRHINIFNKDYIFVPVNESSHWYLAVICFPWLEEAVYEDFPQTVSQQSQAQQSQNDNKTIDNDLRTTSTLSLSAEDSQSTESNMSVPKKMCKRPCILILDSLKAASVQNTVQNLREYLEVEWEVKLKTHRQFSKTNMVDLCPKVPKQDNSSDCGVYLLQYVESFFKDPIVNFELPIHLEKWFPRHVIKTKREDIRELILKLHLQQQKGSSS

Caspase-3 = target: T4, Caspase-3 (Homo sapiens, UniProt P42574); assay: caspase-3 inhibitors as off-family protease, SAR follow-up, selectivity assay for SENP protease inhibitor project, biochemical, luminescence, set 2 (AID 588599); assay type: functional
T4 sequence (P42574 whole entry): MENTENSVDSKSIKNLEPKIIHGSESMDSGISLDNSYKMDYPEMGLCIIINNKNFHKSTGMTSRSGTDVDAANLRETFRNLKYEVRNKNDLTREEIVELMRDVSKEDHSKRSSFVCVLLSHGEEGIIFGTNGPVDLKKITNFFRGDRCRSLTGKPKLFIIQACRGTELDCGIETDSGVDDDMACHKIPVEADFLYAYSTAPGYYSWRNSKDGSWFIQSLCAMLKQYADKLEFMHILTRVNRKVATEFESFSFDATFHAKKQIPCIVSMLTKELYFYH

[4] = target: T1, Sentrin-specific protease 8; assay: SENP8 protease inhibitors, SAR follow-up, biochemical, luminescence, set 2 (AID 588601); assay type: functional
[5] = target: T5, Sentrin-specific protease 6 (Homo sapiens, UniProt Q9GZR1); assay: SENP6 protease inhibitors, SAR follow-up, biochemical, luminescence, set 2 (AID 588598); assay type: functional
T5 sequence (Q9GZR1 whole entry): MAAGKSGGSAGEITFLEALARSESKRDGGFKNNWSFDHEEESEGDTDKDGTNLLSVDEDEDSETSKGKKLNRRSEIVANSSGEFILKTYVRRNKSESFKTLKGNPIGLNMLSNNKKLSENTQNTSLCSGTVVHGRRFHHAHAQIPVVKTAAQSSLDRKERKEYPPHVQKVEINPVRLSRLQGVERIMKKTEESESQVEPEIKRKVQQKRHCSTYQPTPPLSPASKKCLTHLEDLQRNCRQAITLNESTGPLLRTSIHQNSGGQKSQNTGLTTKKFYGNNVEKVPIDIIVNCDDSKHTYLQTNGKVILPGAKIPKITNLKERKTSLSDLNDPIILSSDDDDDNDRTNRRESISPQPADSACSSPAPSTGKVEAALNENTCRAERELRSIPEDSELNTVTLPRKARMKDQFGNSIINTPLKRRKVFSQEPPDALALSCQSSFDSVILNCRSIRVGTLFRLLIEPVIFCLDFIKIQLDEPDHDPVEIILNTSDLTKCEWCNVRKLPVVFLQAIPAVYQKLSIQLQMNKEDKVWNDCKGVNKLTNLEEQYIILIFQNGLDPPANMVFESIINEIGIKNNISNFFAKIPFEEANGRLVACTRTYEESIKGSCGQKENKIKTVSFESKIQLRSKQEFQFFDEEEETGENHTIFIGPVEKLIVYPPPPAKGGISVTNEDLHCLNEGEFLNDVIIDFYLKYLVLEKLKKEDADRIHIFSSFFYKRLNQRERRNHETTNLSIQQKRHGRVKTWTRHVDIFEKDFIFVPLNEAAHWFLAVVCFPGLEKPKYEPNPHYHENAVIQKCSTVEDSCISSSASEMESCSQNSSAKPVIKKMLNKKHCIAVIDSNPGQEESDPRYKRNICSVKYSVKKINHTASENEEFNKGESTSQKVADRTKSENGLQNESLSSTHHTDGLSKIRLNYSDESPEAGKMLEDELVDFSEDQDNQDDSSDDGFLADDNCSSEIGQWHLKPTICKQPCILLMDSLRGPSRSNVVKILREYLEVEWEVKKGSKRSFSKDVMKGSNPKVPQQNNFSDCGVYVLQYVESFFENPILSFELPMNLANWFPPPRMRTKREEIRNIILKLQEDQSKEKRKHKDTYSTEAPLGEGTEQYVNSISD

Beta Lactamase, sequence (Q932Y6 whole entry): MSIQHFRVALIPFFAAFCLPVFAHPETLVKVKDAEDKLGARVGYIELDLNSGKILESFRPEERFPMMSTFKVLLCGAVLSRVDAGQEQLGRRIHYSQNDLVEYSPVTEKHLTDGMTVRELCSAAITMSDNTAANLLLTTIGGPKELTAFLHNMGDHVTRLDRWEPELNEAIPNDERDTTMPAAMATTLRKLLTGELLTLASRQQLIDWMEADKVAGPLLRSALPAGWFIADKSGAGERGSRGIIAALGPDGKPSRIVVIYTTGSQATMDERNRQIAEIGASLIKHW

Cc1ccc(N2C(=O)Cc3ccccc3C2=O)cc1
IC50 (CHO): > 49.8 µM (inactive) | IC50 (Beta Lactamase): 4.59 µM (active) | IC50 [1]: > 100 µM (inactive) | IC50 [2]: 3.36 µM (active)

CCCOc1ccc(-c2c(C(=O)N/N=C/c3cccs3)nnn2-c2nonc2N)cc1
AC50 (CAAX prenyl protease 2): 54.9 µM (active)

CC(C)(C)C(=O)N1CCC(C(=O)Nc2nc3c(F)cc(F)cc3s2)CC1
IC50 [3]: > 99 µM (inactive) | IC50 (Caspase-3): > 99 µM (inactive) | IC50 [4]: > 99 µM (inactive) | IC50 [5]: > 99 µM (inactive)
